Measurements taken from PMC5793879 (Cancer cell, 2017).
Where two headings read alike, the source gives them in different places. Each block holds one compound with its values, some of them ahead of it. Bridge positions count the residues as written; N and C are the ends. Square brackets hold non-standard residues; d marks the D form. Peptide text beside a SMILES is read from it. S5 = C=CCCC[C@](C)(N)C(=O)O

Columns and labels:
OCI-AML3 cells = assay: Caspase-3/7 activation assay; format: cell-based, human; settings: co-treatment with BTSA1
MEF cell lines = assay: Viability assay of MEF cell lines; format: cell-based, mouse
BFL-1/A1 = target: T1, BFL-1/A1 (Homo sapiens, UniProt Q16548); format: binding; settings: BTSA1 at 50 μM
T1 sequence (Q16548 1-151 limits assumed): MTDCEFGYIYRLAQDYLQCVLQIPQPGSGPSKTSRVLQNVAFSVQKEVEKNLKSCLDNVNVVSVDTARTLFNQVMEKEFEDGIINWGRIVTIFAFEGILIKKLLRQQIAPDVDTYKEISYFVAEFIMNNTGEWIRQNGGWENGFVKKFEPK

MCL-1 = MCL-1 (Homo sapiens, UniProt Q07820); format: binding
Sequence of MCL-1 (Q07820 170-327 limits assumed): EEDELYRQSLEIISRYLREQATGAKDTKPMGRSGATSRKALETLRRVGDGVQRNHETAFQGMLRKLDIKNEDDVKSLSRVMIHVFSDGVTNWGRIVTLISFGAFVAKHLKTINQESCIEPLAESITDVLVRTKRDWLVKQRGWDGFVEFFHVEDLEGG

BCL-XL = BCL-XL (Homo sapiens, UniProt Q07817); format: binding; settings: BTSA1 at 50 μM
Sequence of BCL-XL (Q07817 1-212 limits assumed): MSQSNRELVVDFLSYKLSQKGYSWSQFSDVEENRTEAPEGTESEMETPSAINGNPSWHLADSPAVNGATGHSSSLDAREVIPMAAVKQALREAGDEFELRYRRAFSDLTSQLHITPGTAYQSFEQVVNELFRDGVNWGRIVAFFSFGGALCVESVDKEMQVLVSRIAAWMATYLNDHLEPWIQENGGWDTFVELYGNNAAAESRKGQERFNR

[1] = tested on: isolated mitochondria from mouse liver; settings: without addition of BAX
[2] = tested on: BAX KO MEF, DKO MEF, wild type MEF, H9c2 myocytes, 3T3 fibroblasts
[3] = target: BAX trigger site (full-length BAX) (Homo sapiens, UniProt Q07812); format: binding; settings: relative to BTSA1
Sequence of BAX trigger site (full-length BAX) (Q07812 whole entry): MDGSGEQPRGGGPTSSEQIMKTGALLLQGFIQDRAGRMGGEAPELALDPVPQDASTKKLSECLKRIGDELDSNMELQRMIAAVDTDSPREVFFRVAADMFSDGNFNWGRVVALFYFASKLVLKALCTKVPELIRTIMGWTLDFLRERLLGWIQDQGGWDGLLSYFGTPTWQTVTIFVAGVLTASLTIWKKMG

SMILES: OC(CN1CCNCC1)Cn1c2ccc(Br)cc2c2cc(Br)ccc21 (stereo not drawn) [reference compound]
- inhibition of BTSA1-mediated apoptosis measured by caspase-3/7 activation (OCI-AML3 cells): complete inhibition

SMILES: CC1(C)CCC(c2ccc(Cl)cc2)=C(CN2CCN(c3ccc(C(=O)NS(=O)(=O)c4ccc(N[C@H](CCN5CCOCC5)CSc5ccccc5)c(S(=O)(=O)C(F)(F)F)c4)cc3)CC2)C1 [Navitoclax, reference compound]
- IC50 (MEF cell lines; Mus musculus, MEF, read-out: IC50, viability): 1 to 5 µM

- competition of FITC-BIM SAHBA2 binding to BFL-1/A1 (BFL-1/A1): effectively competed
- competition of FITC-BIM SAHBA2 binding to MCL-1 (MCL-1; BTSA1 at 50 μM): effectively competed
- competition of FITC-BIM SAHBA2 binding to BCL-XL (BCL-XL): effectively competed
SMILES: CC[C@H](C)[C@H](NC(=O)[C@H](Cc1c[nH]c2ccccc12)NC(=O)[C@@H](NC(=O)[C@H](CCC(=O)O)NC(C)=O)[C@@H](C)CC)C(=O)N[C@@H](C)C(=O)N[C@@H](CCC(N)=O)C(=O)N[C@@H](CCC(=O)O)C(=O)N[C@@H](CC(C)C)C(=O)N[C@@H](CCCNC(=N)N)C(=O)N[C@@]1(C)CCCC=CCCC[C@@](C)(C(=O)N[C@@H](Cc2ccccc2)C(=O)N[C@@H](CC(N)=O)C(=O)N[C@@H](C)C(=O)N[C@@H](Cc2ccc(O)cc2)C(=O)N[C@@H](Cc2ccc(O)cc2)C(=O)N[C@@H](C)C(N)=O)NC(=O)[C@H](CC(=O)O)NC(=O)CNC(=O)[C@H]([C@@H](C)CC)NC1=O [BIM SAHBA2, reference compound] (Ac-EIWIAQELR[S5]IGD[S5]FNAYYA-NH2; staple 10-14 (inferred))

SMILES: O=C1C(=NNc2nccs2)C(c2ccccc2)=NN1c1nc(-c2ccccc2)cs1 [BTSA1]
- cytochrome c release [1]: no effect
- sensitivity to treatment, cells with no BAX expression ([2]; BAX KO MEF and DKO MEF, 24 hr): exhibit resistance
- sensitivity to treatment, cells that express BAX ([2]; wild type MEF, H9c2 myocytes, 3T3 fibroblasts, doses giving complete cell death in AML cells): still exhibit resistance
- sensitivity of MEF cell lines (MEF cell lines): insensitive
- competition of FITC-BIM SAHBA2 binding to MCL-1 (MCL-1): no capacity to compete
- competition of FITC-BIM SAHBA2 binding to BCL-XL (BCL-XL): no capacity to compete

- reduction in binding capacity to BAX [3]: ~ 10 fold
SMILES: CC1=NN(c2nc(-c3ccccc3)cs2)C(=O)C1=NNc1nccs1 [BTSA2]
